# Assay results as given in PubChem BioAssay (NCI).
# Where “and” joins values, the source holds several entries; their conditions need not be identical. Equal values may be shown once.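 Protocol summary: plate cells (96-well), add compound at 5 concentrations, incubate 48 h, interpolate endpoints linearly. GI50: concentration for 50% inhibition of growth. TGI: total growth inhibition.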
# Columns and labels:
# Assay in all cases: growth of human tumour cells (NCI), 48 h
# [1] = system: MDA-MB-468 breast
# [2] = system: HCC-2998 colon
# [3] = system: OVCAR-5 ovarian
# [4] = system: HT29 colon
# [5] = system: HCT-15 colon
# [6] = system: SF-539 CNS
# [7] = system: SK-OV-3 ovarian
# [8] = system: OVCAR-4 ovarian
# [9] = system: NCI-H522 lung
# [10] = system: SNB-19 CNS
# [11] = system: HCT-116 colon
# [12] = system: UACC-257 melanoma
# [13] = system: ACHN renal
# [14] = system: 786-0 renal
# [15] = system: MDA-MB-435
# [16] = system: SK-MEL-5 melanoma
# [17] = system: M14 melanoma
# [18] = system: KM12 colon
# [19] = system: TK-10 renal
# [20] = system: EKVX NSCLC
# [21] = system: DU-145 prostate
# [22] = system: A498 renal
# [23] = system: HS 578T breast
# [24] = system: HOP-92 NSCLC
# [25] = system: IGROV1 ovarian
# [26] = system: HOP-62 NSCLC
# [27] = system: UO-31 renal
# [28] = system: MCF7 breast
# [29] = system: NCI-H226 lung
# [30] = system: BT-549 breast
# [31] = system: MDA-MB-231 breast
# [32] = system: SN12C renal
# [33] = system: A549 NSCLC
# [34] = system: PC-3 prostate
# [35] = system: UACC-62 melanoma
# [36] = system: U251 CNS
# [37] = system: K-562 leukemia
# [38] = system: SR leukemia
# [39] = system: RXF 393 renal
# [40] = system: SF-268 CNS
# [41] = system: SW-620 colon
# [42] = system: NCI-H23 lung
# [43] = system: OVCAR-3 ovarian
# [44] = system: MALME-3M melanoma
# [45] = system: HL-60(TB) leukemia
# [46] = system: SF-295 CNS
# [47] = system: SK-MEL-28 melanoma
# [48] = system: MOLT-4 leukemia
# [49] = system: T-47D breast
# [50] = system: CAKI-1 renal
# [51] = system: OVCAR-8 ovarian
# [52] = system: SK-MEL-2 melanoma
# [53] = system: NCI-H460 lung
# [54] = system: COLO 205 colon
smiles,measurement,setting,value
CCCCN(CCCC)Cc1cc(Nc2ccnc3cc(Cl)ccc23)ccc1O,GI50,[1],4940 nM
same,TGI,[1],> 100 µM
COc1cc(C)ccc1C(=O)c1ccc(C)cc1OC,GI50,[1],1390 nM
same,TGI,[1],> 100 µM
O=C1OCC2=C1C(c1cccc(F)c1)c1cc3c(cc1N2CCO)OCO3 (stereo not given),GI50,[1],1120 nM
same,TGI,[1],> 50 µM
O=S(=O)(Nc1ccc(Br)cc1)c1ccc(-c2cnc(C3CC3)o2)cc1,GI50,[1],1130 nM
same,TGI,[1],7.28 µM
COc1cccc(-c2nc3cc(NC(=O)c4ccc(Cl)c(C#N)c4)ccc3o2)c1,GI50,[1],1600 nM
same,TGI,[1],3.44 µM
CN1CCC(CNc2cc(C3(C(=O)Nc4cc(C(=O)Nc5ccc(Cl)c(C(F)(F)F)c5)ccc4F)CC3)ncn2)CC1,GI50,[1],1830 nM
same,TGI,[1],4.41 µM
Cc1cc(=O)oc2cc(OCCOc3ccc(/C=C/C(=O)Nc4ccccc4N)cc3)ccc12,GI50,[2],5.47 µM
same,TGI,[2],> 100 µM
same,GI50,[3],6.43 µM
same,TGI,[3],> 100 µM
same,GI50,[4],4.45 µM
same,TGI,[4],> 100 µM
same,GI50,[5],3.17 µM
same,TGI,[5],> 100 µM
same,GI50,[6],2580 nM
same,TGI,[6],> 100 µM
same,GI50,[7],8.39 µM
same,TGI,[7],> 100 µM
same,GI50,[8],4.86 µM
same,TGI,[8],> 100 µM
same,GI50,[9],4 µM
same,TGI,[9],> 100 µM
same,GI50,[10],4.42 µM
same,TGI,[10],> 100 µM
same,GI50,[11],3.31 µM
same,TGI,[11],> 100 µM
same,GI50,[12],2870 nM
same,TGI,[12],> 100 µM
same,GI50,[13],5.52 µM
same,TGI,[13],> 100 µM
same,GI50,[14],3.75 µM
same,TGI,[14],> 100 µM
same,GI50,[15],6.69 µM
same,TGI,[15],> 100 µM
same,GI50,[16],1480 nM
same,TGI,[16],3.2 µM
same,GI50,[17],9.87 µM
same,TGI,[17],> 100 µM
same,GI50,[18],5.12 µM
same,TGI,[18],> 100 µM
same,GI50,[19],9.25 µM
same,TGI,[19],> 100 µM
same,GI50,[20],6.5 µM
same,TGI,[20],> 100 µM
same,GI50,[21],6.8 µM
same,TGI,[21],> 100 µM
same,GI50,[22],2740 nM
same,TGI,[22],9.36 µM
same,GI50,[23],> 100 µM
same,TGI,[23],> 100 µM
same,GI50,[24],3.45 µM
same,TGI,[24],> 100 µM
same,GI50,[25],2080 nM
same,TGI,[25],> 100 µM
same,GI50,[26],8.17 µM
same,TGI,[26],> 100 µM
same,GI50,[1],3410 nM
same,TGI,[1],96.2 µM
same,GI50,[27],1310 nM
same,TGI,[27],> 100 µM
same,GI50,[28],1270 nM
same,TGI,[28],> 100 µM
same,GI50,[29],4.09 µM
same,TGI,[29],> 100 µM
same,GI50,[30],1200 nM
same,TGI,[30],4.93 µM
same,GI50,[31],2550 nM
same,TGI,[31],35.1 µM
same,GI50,[32],2770 nM
same,TGI,[32],> 100 µM
same,GI50,[33],4.27 µM
same,TGI,[33],> 100 µM
same,GI50,[34],3.1 µM
same,TGI,[34],> 100 µM
same,GI50,[35],3.74 µM
same,TGI,[35],> 100 µM
same,GI50,[36],5.59 µM
same,TGI,[36],> 100 µM
same,GI50,[37],3.01 µM
same,TGI,[37],> 100 µM
same,GI50,[38],5.66 µM
same,TGI,[38],> 100 µM
same,GI50,[39],3.64 µM
same,TGI,[39],> 100 µM
same,GI50,[40],4.43 µM
same,TGI,[40],> 100 µM
same,GI50,[41],4.16 µM
same,TGI,[41],> 100 µM
same,GI50,[42],6.05 µM
same,TGI,[42],> 100 µM
same,GI50,[43],4.19 µM
same,TGI,[43],> 100 µM
same,GI50,[44],3.89 µM
same,TGI,[44],> 100 µM
same,GI50,[45],369 nM
same,TGI,[45],2620 nM
same,GI50,[46],4.8 µM
same,TGI,[46],> 100 µM
same,GI50,[47],5.2 µM
same,TGI,[47],> 100 µM
same,GI50,[48],294 nM
same,TGI,[48],1340 nM
same,GI50,[49],1590 nM
same,TGI,[49],> 100 µM
same,GI50,[50],4.58 µM
same,TGI,[50],> 100 µM
same,GI50,[51],3.99 µM
same,TGI,[51],> 100 µM
same,GI50,[52],5.81 µM
same,TGI,[52],> 100 µM
same,GI50,[53],2740 nM
same,TGI,[53],> 100 µM
same,GI50,[54],3.68 µM
same,TGI,[54],> 100 µM
CC(CO)Nc1cc(-c2[nH]c3cccnc3c2-c2ccc(F)cc2)ccn1 (stereo not given),GI50,[1],6740 nM
same,TGI,[1],> 25 µM
CCCN1C(=O)NC(=O)C(CC)(N2C(=O)c3c(F)c(F)c(F)c(F)c3C2=O)C1=O (stereo not given),GI50,[1],1540 nM
same,TGI,[1],3.93 µM
CCSC1=NC2C(N(CC)C(=O)N2CC)N1/N=C/C=C/c1ccccc1[N+](=O)[O-] (stereo not given),GI50,[1],100 nM
O=C(Nc1cccc(Cl)c1)Nn1cnnc1,GI50,[1],> 50000 nM
same,TGI,[1],> 50 µM
CCc1c2c(nc3ccc(OCc4ccc(B(O)O)cc4)cc13)-c1cc3c(c(=O)n1C2)COC(=O)[C@]3(O)CC,GI50,[1],< 10 nM
same,TGI,[1],0.0355 µM
C=C1CCC2C3(C)COC(C)(C)OC3CCC2(C)C1C/C=C1/C(=O)OCC1OC(C)=O (stereo not given),GI50,[1],1440 nM
same,TGI,[1],3.06 µM
Nc1ncn([C@@H]2S[C@H](CO)[C@@H](O)[C@@H]2F)c(=O)n1,GI50,[1],> 100000 nM
same,TGI,[1],> 100 µM
COc1cc(/C=C/C(=O)/C=C/c2cc(OC)c3c(c2)OCO3)cc2c1OCO2,GI50,[1],3460 nM
same,TGI,[1],28.3 µM
Cc1ccc2cnc(N)c(C#Cc3cc(C(=O)Nc4ccc(CN5CCN(C)CC5)c(C(F)(F)F)c4)cnc3C)c2c1,GI50,[1],932 nM
same,TGI,[1],2.08 µM
Cc1c2cnccc2c(C)c2c1c1cc(C#N)ccc1n2C,GI50,[1],228 nM
same,TGI,[1],0.741 µM
N#C[Se]Cc1cc(-c2ccccc2)n(-c2ccc(S(N)(=O)=O)cc2)n1,GI50,[1],1590 nM
same,TGI,[1],3.47 µM
CC1=C2C(=C[C@@](C)(CO)[C@@H]2OC(=O)N(C)CCN(C)C(=O)OC(C)(C)C)C(=O)[C@](C)(O)C12CC2,GI50,[1],1100 nM
same,TGI,[1],3.8 µM
CCOc1ccccc1CCN=C1NC(=O)/C(=C/c2ccc3ncccc3c2)S1,GI50,[1],1160 nM
same,TGI,[1],> 16.9 µM
O=C1/C(=C/c2ccc([N+](=O)[O-])cc2)CN(C(=O)CCN2CCC(=NO)CC2)C/C1=C\c1ccc([N+](=O)[O-])cc1,GI50,[1],1060 nM
same,TGI,[1],3.61 µM
CC1=C([Se]CC(OC(=O)CC[Se]c2ccccc2)C(=O)NC(C)(C)C)C(=O)c2ccccc2C1=O (stereo not given),GI50,[1],509 nM
same,TGI,[1],2.06 µM
O=C(NCC1CC1)c1ccc(-c2cccc(C(=O)NC3CC3)c2)cc1,GI50,[1],> 25000 nM
same,TGI,[1],> 25 µM
Cn1ncc(-c2ccc3c(=O)[nH]nc(CN)c3c2)c1-c1c(F)c(Cl)cc(OC2CC2)c1C#N,GI50,[1],11700 nM and 10200 nM
same,TGI,[1],24.8 µM and 22.5 µM
c1ccc(-c2nc(-c3ccccn3)nc(-c3ccccn3)n2)nc1,GI50,[1],30400 nM
same,TGI,[1],99.1 µM
CCN1C(=O)N(CC)C2C1NN=c1s/c(=C\c3ccc(Cl)cc3Cl)c(=O)n12 (stereo not given),GI50,[1],41.7 nM
same,TGI,[1],19.4 µM
COc1ccc2c(c1)C(=O)/C(=C/c1cccc(OCC(=O)c3ccccc3)c1)CC2,GI50,[1],2680 nM
same,TGI,[1],74.2 µM
CCOC(=O)Oc1c(OC)cc(C(=O)c2ccc(OC)c(O)c2OC)cc1OC,GI50,[1],2650 nM
same,TGI,[1],> 100 µM
Nc1nc2ccc(-c3nc4ccc5[nH]ncc5c4c4c3CCC4)cc2s1,GI50,[1],182 nM
same,TGI,[1],4.36 µM
O=C(O)c1nc(NCc2nc3cc(Cl)ccc3o2)n[nH]1,GI50,[1],> 100000 nM
same,TGI,[1],> 100 µM
